The record followed here is ChEMBL document CHEMBL5380844, “Discovery of a Novel, Potent, Orally Active, and Safe Inhibitor Targeting Human Mitochondrial RNA Polymerase” (J Med Chem, 2023).

SMILES strings stand for the structures. The source made the active and inactive calls. The rule behind the calls is not given here.

Assay [1] has as its system A2780. Kind of assay: Induction of mitochondrial morphological changes in human A2780 cells assessed as change in shape of mitochondria measured after 24 hrs by TEM analysis. Format: functional, cell-based.
Assay [2] has as its system A2780. Kind of assay: Antitumor activity against human A2780 cells xenografted in BALB/c nude mouse model assessed as reduction in tumor weight at 50 mg/kg, po administered daily and measured after 27 days relative to control. Format: functional. Set-up: scale not given: the % may be the effect or the level left. The following applies: time 27 day.
Assay [3] deals with A2780. Kind of assay: Inhibition of MT-CO3 expression in human A2780 cells at 100 nM incubated for 12 hrs by RNA sequencing analysis. It counts as functional, cell-based.
Assay [4] deals with A2780. Kind of assay: Inhibition of MT-ND4L expression in human A2780 cells at 100 nM incubated for 12 hrs by RNA sequencing analysis. Format: functional, cell-based.
Assay [5] deals with A2780. Kind of assay: Effect on ATP5A level in human A2780 cells at upto 500 nM by Western blot analysis. It counts as functional, cell-based. Background: A western blot detects proteins with antibodies after separation by electrophoresis.
Assay [6] concerns A2780. Kind of assay: Inhibition of MT-CYB expression in human A2780 cells at 100 nM incubated for 12 hrs by RNA sequencing analysis. Format: functional, cell-based.
Assay [7] has as its system A2780. Kind of assay: Downregulation of COX1 level in human A2780 cells by Western blot analysis. It counts as functional, cell-based. Conditions: dose <= 500.0 nM.
Assay [8] relates to A2780. Kind of assay: Inhibition of MT-ND6 expression in human A2780 cells at 100 nM incubated for 12 hrs by RNA sequencing analysis. It counts as functional, cell-based.
In assay [9] the test system is A2780. Kind of assay: Antitumor activity against human A2780 cells xenografted in BALB/c nude mouse model assessed as reduction in ATP5A level at 100 mg/kg, po by immunoblotting analysis. Format: functional, organism-based. In general terms: In xenograft studies the graft and the host belong to different species.
Assay [10] relates to A2780. Kind of assay: Induction of apoptosis in human A2780 cells assessed as necrotic cells at 100 nM incubated for 96 hrs by Annexin-V/FITC and PI staining based flow cytometry analysis (reference value: 2.07%). Format: functional.

As for `Cc1ccc(-c2cc(=O)oc3cc(O[C@H](C)C(=O)N4CC5CCC(C4)N5C)ccc23)c(C)c1`, the result in the assay on A2780 [1] and with A2780 [5] was inactive. Moreover, the Activity with A2780 [2] was 54.82%; in the assay with A2780 [7] it was “Dose-Dependent Effect”; in the assay with A2780 [10], 4.46%. Moreover, the inhibition result in the assay with A2780 [3], with A2780 [4], with A2780 [6] and in the assay with A2780 [8] was “Active” throughout. Moreover, the outcome in the assay on A2780 [9] was Active.
